In US9421263B2, “Antimicrobial compositions containing synergistic combinations of quaternary ammonium compounds and essential oils and/or constituents thereof” (THE TRUSTEES OF COLUMBIA UNIVERSITY IN THE CITY OF NEW YORK, priority 2003, dated 2016):

Legend:
[1] = system: S. aureus; experiment: Evaluation of rapid antimicrobial activity in presence of serum (S. aureus); format: cell-based; conditions: for synergy in combination with farnesol, in words: Example 3, Table 3, rapid serum-based assay; for log10 reduction, With zinc salts / cfu/ml, With zinc salts / log10 reduction, Without zinc salts / cfu/ml, Without zinc salts: Table 2; for log10 reduction, With zinc salts / cfu/ml, With zinc salts: Base #1 with zinc salts; for log10 reduction, With zinc salts / cfu/ml, With zinc salts / log10 reduction, Without zinc salts / cfu/ml, Without zinc salts / cfu/ml / log10 reduction / log10 reduction, S. aureus / cfu/ml, S. aureus / Log10 reduction: serum; for log10 reduction, With zinc salts / cfu/ml, With zinc salts / log10 reduction, Without zinc salts / cfu/ml, Without zinc salts / cfu/ml / log10 reduction / log10 reduction, S. aureus / cfu/ml, S. aureus / Log10 reduction / CFU/mL: 15 seconds; for cfu/ml, With zinc salts / cfu/ml: control gel 1.4 × 10^7; for log10 reduction, Without zinc salts / cfu/ml, Without zinc salts: Base #2 without zinc salts; for cfu/ml, Without zinc salts: control gel 4.1 × 10^7; for cfu/ml / log10 reduction: Table 3, groups in gel Base #2 (% w/w); for log10 reduction, S. aureus / cfu/ml, S. aureus: Base #2; for synergy of the combination, in words: Example 1, Table 1, Base #1; for Log10 reduction / CFU/mL: Table 1, BZK 0.12%, CHG 0.05%, TC 0.3%, ZP 0.5%, F/LO/LI/CI 0.3%; for Log10 reduction: Base #1 (zinc salts), versus Control (Base); for CFU/mL: agents in alcohol based zinc gel Base #1, bovine adult serum, control 3.4 × 10^7
Procedure: Evaluation of Rapid Antimicrobial Activity in Presence of Serum.
To determine the efficacy of the antimicrobial composition on the skin, which may be contaminated with blood or other proteinaceous fluids containing bacteria, the antimicrobial activity was evaluated in the presence of serum as follows. Briefly, 0.5 ml of 10^8 CFU of S. aureus/ml was added to 0.5 ml of bovine adult serum in a sterile culture tube and mixed. 0.5 ml of the test formulation was added to each tube and vortexed. After 15 seconds, it was further diluted 1:100 with drug inactivating media (LTSB) and 0.5 ml was plated on a TSA plate. The plates were incubated at 37° C. for 24 hours and the colony count per ml of culture was determined.

[2] = system: E. coli; experiment: Rapid antimicrobial activity assay in presence of serum (E. coli); format: cell-based
[3] = cited from earlier work
[4] = Table 4, BZK 0.12% w/w, BZT 0.18% w/w, all other EO/IC 0.5% w/w
[5] = Table 4, BZK 0.12% w/w, BZT 0.18% w/w, all other EO/IC 0.5% w/w, control 1.4 × 10^7
[6] = Table 6, Gel Base #1, ingredients % w/w, control base 3.4 × 10^7 cfu/ml
[7] = Table 7, ingredients in gram millimoles per 100 g Gel, control base 6.4 × 10^7 cfu/ml
[8] = Table 4, Base #2, BZK 0.12% w/w, BZT 0.18% w/w, all other EO/IC 0.5% w/w, 15 seconds
[9] = Table 4, Base #2, BZK 0.12% w/w, BZT 0.18% w/w, all other EO/IC 0.5% w/w, 15 seconds, control 2.6 × 10^7
[10] = Table 5, Base #2, 15 seconds, gel base 2.6 × 10^7
[11] = Example 6, Table 7, molar proportions

Row | Compound | log10 reduction, S. aureus ([1]; Table 5) [log10] | cfu/ml, S. aureus ([1]; Table 5, gel base 1.4 × 10^7) | log10 reduction in colony count from the control [1, 6] [log10] | log10 reduction in colony count from the control [1, 7] [log10] | log10 reduction, E. coli ([2]; Table 5, Base #2, 15 seconds) [log10] | cfu/ml, E. coli [2, 10] | synergy of the combination, in words [1] | Log10 reduction [1] [log10] | CFU/mL [1] | other results
1 | CC(C)(C)CC(C)(C)c1ccc(OCCOCC[N+](C)(C)Cc2ccccc2)cc1 [BZT, benzethonium chloride] | 1.4 | 5.3 × 10^5 cfu/ml | 1.6 | 1.9 | 1.8 | 4.3 × 10^5 cfu/ml | – | – | – | synergy in combination with farnesol, in words [1]: synergistic antimicrobial activity when used in combination with farnesol; log10 reduction, With zinc salts [1]: 1.6 log10; cfu/ml, With zinc salts [1]: 3.3 × 10^5 cfu/ml; log10 reduction, Without zinc salts [1]: 1.7 log10; cfu/ml, Without zinc salts [1]: 7.5 × 10^5 cfu/ml; cfu/ml ([1]; listed as BZT (0.06%)): 5.7 × 10^5 cfu/ml; cfu/ml ([1]; listed as BZT (0.12%)): 4.7 × 10^5 cfu/ml; cfu/ml ([1]; listed as BZT (0.18%)): 3.3 × 10^5 cfu/ml; log10 reduction ([1]; listed as BZT (0.06%)): 1.4 log10; log10 reduction ([1]; listed as BZT (0.12%)): 1.5 log10; log10 reduction ([1]; listed as BZT (0.18%)): 1.6 log10; log10 reduction, S. aureus [1, 4]: 1.4 log10; cfu/ml, S. aureus [1, 5]: 5.3 × 10^5 cfu/ml; log10 reduction, E. coli [2, 8]: 1.8 log10; cfu/ml, E. coli [2, 9]: 4.3 × 10^5 cfu/ml
2 | N=C(NCCCCCCNC(=N)NC(=N)Nc1ccc(Cl)cc1)NC(=N)Nc1ccc(Cl)cc1.O=C(O)[C@H](O)[C@@H](O)[C@H](O)[C@H](O)CO.O=C(O)[C@H](O)[C@@H](O)[C@H](O)[C@H](O)CO [CHG, chlorhexidine gluconate] | 1.3 | 6.6 × 10^5 cfu/ml | 1.7 | 1.9 | 1.7 | 4.8 × 10^5 cfu/ml | No such synergism was observed when farnesol was combined | 1.7 | 6.6 × 10^5 CFU/mL | –
3 | CC(C)=CCCC(C)=CC=O [CI, Citral] | – | – | – | – | – | – | synergistic antimicrobial effects when combined with BZK | 1.3 | 1.5 × 10^6 CFU/mL | –
4 | CC(C)=CCCC(C)=CCCC(C)=CCO [F, Farnesol] | 1.5 | 4.5 × 10^5 cfu/ml | 0.6 | 1.8 | 1.8 | 4.3 × 10^5 cfu/ml | synergistic antimicrobial effects when combined with BZK | 0.6 | 8.4 × 10^6 CFU/mL | log10 reduction, With zinc salts [1]: 1.5 log10; cfu/ml, With zinc salts [1]: 4.5 × 10^5 cfu/ml; log10 reduction, Without zinc salts [1]: 1.7 log10; cfu/ml, Without zinc salts [1]: 8.9 × 10^5 cfu/ml; log10 reduction [1]: 1.5 log10; cfu/ml ([1]; listed as Farnesol (0.3%)): 4.6 × 10^5 cfu/ml; cfu/ml ([1]; listed as Farnesol (0.5%)): 4.5 × 10^5 cfu/ml; log10 reduction, S. aureus [1, 4]: 1.5 log10; cfu/ml, S. aureus [1, 5]: 4.5 × 10^5 cfu/ml; log10 reduction, E. coli [2, 8]: 1.8 log10; cfu/ml, E. coli [2, 9]: 4.3 × 10^5 cfu/ml
5 | C=CC(C)(O)CCC=C(C)C (stereo not shown) [LI, Linalool] | – | – | – | – | – | – | synergistic antimicrobial effects when combined with BZK | 1.3 | 1.5 × 10^6 CFU/mL | –
6 | Oc1cc(Cl)ccc1Oc1ccc(Cl)cc1Cl [TC, triclosan] | – | – | 1.3 | 1.3 | – | – | No such synergism was observed when farnesol was combined | 1.3 | 1.5 × 10^6 CFU/mL | whether farnesol shows synergy with or enhances the antimicrobial agent, in words ([1]; Example 6, Table 6, % w/w): does not show any synergy; whether farnesol shows synergy with or enhances the antimicrobial agent, in words [1, 11]: but not with triclosan
7 | Polyhexamethylenebiguanide hydrochloride [PHMB] | 2.9 | 4.3 × 10^4 cfu/ml | 2.9 | 2.1 | 1.6 | 6.0 × 10^5 cfu/ml | – | – | – | effect of added biguanide on the combination of BZT and farnesol, in words ([1]; Example 5, Table 5 (S. aureus and E. coli)): appears to enhance the activity of the combination of BZT and farnesol; whether farnesol shows synergy with or enhances the antimicrobial agent, in words ([1]; Example 6, Table 6, % w/w): enhances the activity; whether farnesol shows synergy with or enhances the antimicrobial agent, in words [1, 11]: appears to enhance the activity of farnesol
8 | benzalkonium chloride [BZK] | – | – | 1.8 | – | – | – | significant synergistic activity in combination with EOs and ICs | 1.8 | 5.4 × 10^5 CFU/mL | synergy in combination with farnesol, in words [1]: synergistic antimicrobial activity when used in combination with farnesol; whether farnesol shows synergy with or enhances the antimicrobial agent, in words ([1]; Example 6, Table 6, % w/w): shows synergy; cfu/ml ([1]; listed as BZK (0.06%)): 1.8 × 10^6 cfu/ml; cfu/ml ([1]; listed as BZK (0.12%)): 5.4 × 10^5 cfu/ml; log10 reduction ([1]; listed as BZK (0.06%)): 0.9 log10; log10 reduction ([1]; listed as BZK (0.12%)): 1.4 log10; log10 reduction, S. aureus [1, 4]: 1.6 log10; cfu/ml, S. aureus [1, 5]: 3.3 × 10^5 cfu/ml; log10 reduction, E. coli [2, 8]: 1.6 log10; cfu/ml, E. coli [2, 9]: 5.8 × 10^5 cfu/ml
9 | zinc glycerate | – | – | – | – | – | – | – | – | – | water solubility, in words [3]: moderately water soluble
10 | zinc picolinate | – | – | – | – | – | – | – | – | – | water solubility, in words [3]: moderately water soluble
11 | zinc pyrithione [ZP] | – | – | – | – | – | – | No such synergism was observed when farnesol was combined | 1.4 | 1.4 × 10^6 CFU/mL | –
